# Laboratory results published in US9145375B2, “Quinazolinone compounds” (PRANA BIOTECHNOLOGY LIMITED, priority 2008, dated 2015).
# “And” between values parts separate entries of the source, which are not always exact repeats. Equal entries are not always repeated.
# Columns and labels:
# [1] = Plasma Protein Binding, human; type: in vitro ADME
# [2] = Metabolism in hepatocytes (predicted EH), rat; type: in vitro ADME
# [3] = In Vitro Metabolism in Human Liver Microsomes (predicted EH); type: in vitro ADME
# Procedure: [formula] [formula] [formula] [formula] • Cbrain=concentration of compound in brain parenchyma (ng/g) • Cbrain homogenate=concentration of compound in brain homogenate (ng/g) • Cbrain vasculature=concentration of compound in brain vasculature (ng/g) • CPlasma=concentration of compound in plasma (ng/mL) • VP=brain plasma volume (26 μL/g for male Swiss Outbred mice) • B:P=brain-to-plasma ratio • Papp=apparent permeability coefficient of compound permeating the blood-brain barrier • ∫0^tcplasmadt=concentration of compound in plasma from time zero to 5 min post-dose (equivalent to the 5 min post-dose plasma concentration, assuming no back diffusion from brain to plasma within this time period) • A=surface area of capillaries forming the blood-brain barrier (240 cm^2/g brain weight for mouse) Assay 7 In Vitro Metabolism in Human Liver Microsomes
# The solubility of test compounds and their recovery from the incubation media were confirmed prior to the metabolic assay. Metabolic stability was performed by incubating test compounds individually (1 μM) at 37° C. with human liver microsomes. The metabolic reaction was initiated by the addition of a NADPH-regenerating system (i.e. NADPH is the cofactor required for CYP450-mediated metabolism) and quenched at various time points over the incubation period by the addition of acetonitrile. Additional samples with dual co-factors, i.e. NADPH and UDPGA (the co-factor for glucuronidation), were also included in the incubation for the qualitative assessment of the potential for glucuronide formation. The relative loss of parent compound and formation of metabolic products was monitored by LC/MS using a Waters/Micromass LCT mass spectrometer.
# Test compound concentration versus time data were fitted to an exponential decay function to determine the first-order rate constant for substrate depletion. In cases where clear deviation from first-order kinetics was evident, only the initial linear portion of the profile was utilised to determine the degradation rate constant (k). Each substrate depletion rate constant was then used to calculate: [1] degradation half-life, [2] an in vitro intrinsic clearance value (CLint,in vitro); [3] a predicted in vivo intrinsic clearance value (CLint); and [4] a predicted in vivo hepatic extraction ratio (EH).
# [formula] • The following scaling parameters were assumed for estimating metabolic stability parameters:
# Predictions of In Vivo Hepatic Clearance and Hepatic Extraction Ratios:
# The microsome-predicted hepatic extraction ratios (EH) obtained based on the relative rate of degradation of the test compound in vitro, lead to test compounds being classified as low (<0.3), intermediate (0.3-0.7), high (0.7-0.95) or very high (>0.95) extraction compounds. The assumptions underlying this classification are stated below.
# The use of hepatic microsomes in the prediction of the in vivo hepatic clearance and extraction ratio is based on a number of assumptions (Obach, 1999; Drug Metab. Dispos. 27: 1350-1359):
# 1) Hepatic (microsomal) metabolic clearance is the major clearance mechanism for compounds in vivo;
# 2) NADPH-dependent oxidative metabolism predominates over other metabolic routes (i.e. direct conjugative metabolism, reduction, hydrolysis, etc.); and,
# 3) Rates of metabolism and enzyme activities in vitro are truly reflective of those that exist in vivo.
# Calculations of intrinsic clearance are based on the “in vitro […] method” (Obach, 1999), which has two further inherent assumptions:
# 1) The substrate concentration employed is well below the apparent KM for substrate turnover; and,
# 2) There is no significant product inhibition, nor is there any mechanism based inactivation of enzyme.
# Data should be considered within these terms of reference.
# [4] = test system: MPTP induced cell death in the SN; test: Parkinson's disease in vivo: MPTP model; parameters: species or system mouse; settings: MPTP mice; for Behaviour Pole Test, % (SSV = 0%) / Behaviour Pole Test, value ± SD: 30 mg/kg; for SN cell counts % of SSV / SN cell counts (cells +/− SD): test drug 30 mg/kg daily by oral gavage, several experiments
# Excerpt: Parkinson's Disease In Vivo Technique: MPTP
# MPTP (1-methyl 4-phenyl 1,2,3,6-tetrahydropyridine) is a chemical that is related to the opioid analgesic drugs. MPTP causes Parkinsonian side-effects. This occurs when MPTP is metabolized into MPP+, which kills neurons in a part of the brain called the substantia nigra. MPP+ interferes with mitochondria metabolism which leads to cell death and causes the build up of free radicals, toxic molecules that contribute further to cell destruction. MPTP has abilities to effect neuronal death in dopaminergic cells. Such effects lead to gross depletion of dopaminergic neurons which has severe implications on cortical control of complex movements.
# General Experimental Design
# Determining that MPTP Causes Continued Cell Death
# Control (non tg) and transgenic mice receive five intraperitoneal injections of MPTP-HCl (23 gauge needle, 20 mg\kg of free base; Sigma, St. Louis, Mo., USA) dissolved in sterile 0.9% saline at 2-h interval in 1 day. Control animals receive five intraperitoneal injections of 0.9% saline. […] 20 C57BL6, 10 control and 10 hA53T tg are used to establish the precise dose of toxin at 2 weeks. Animals are allowed to recover for 1 week, 2 weeks, 1 month, 12, months and 18 months. The animals are killed and the brains removed for histological (stereological) and biochemical analysis.
# Determining Whether Test Drug Reduces MPTP Induced Cell Death
# Animals are treated as described above. They are treated with test drug 2 days after MPTP injection until death. Test drug is given by oral gavage at a daily dosage of 30 mg/kg. The time of killing the animals is dependant on the analysis of Experiment 1, normally one month or less.
# Drugs are administered by oral gavage, at a daily dosage of 30 mg/kg.
# Mice are assessed at prior to killing the mice for histological analysis.
# Motor coordination and strength are assessed using the rotarod. The rotarod consists of a plastic rotating rod of 3.6 cm axial diameter partitioned by metal disks into five sections to allow the testing of multiple mice simultaneously. Mice are trained on two sessions where the rotation speed is ramped from 0-30 rpm over 5 min and one training session where rotation is a constant 16 rpm for 5 min. Within two days of training, animals are formally assessed on the rotarod rotating at 16 rpm for a maximum of 3 min: the time to fall on this single test is the recorded data point.
# The pole is a 700 mm long, 5 mm diameter, wooden rod. The rod is supported at its base and held vertical. The total walking distance for the mice is 550 mm. The time taken for the mouse to descend the pole is measured with a maximum time of 120 s. If a mouse falls, the time is scored as 120 s.
# Mouse Plasma Conc. = type: in vivo; settings: given as 'Up to'
SMILES,fraction unbound [1],"Metabolism (Predicted EH), Hepatocytes: Rat [2]","Metabolism (Predicted EH), Microsomes: Human [3]","Behaviour Pole Test, % (SSV = 0%) [4] [%]","Behaviour Pole Test, value ± SD [4]",SN cell counts % of SSV [4],SN cell counts (cells +/− SD) [4],Mouse Plasma Conc. (Mouse Plasma Conc.) [ng/mL]
CNCc1nc2c(O)c(Cl)cc(Cl)c2c(=O)n1C [Compound F4161],0.043,Rat = 0.29,Human <0.2,2.55,(2.85 ± 1.63),28.05%,(2781.33 ± 382.88) cells,≤ 510.4
CN(C)Cc1nc2c(O)c(Cl)cc(Cl)c2c(=O)n1CC1CC1 [Compound F4267],0.005,Rat = 0.45,Human <0.31,–,–,53.94% and 53.77%,3331.96 ± 262.97 cells and 4315.11 ± 310.21 cells,≤ 1166.6
CCn1c(CN(C)C)nc2c(O)c(Cl)cc(Cl)c2c1=O.Cl [Compound F4268],0.029,Rat = 0.30,Human <0.2,−25.38,(3.66 ± 1.87),40.35% and 74.83% and 64.00%,3797.33 ± 562.78 cells and 3065 ± 387 cells and 3163.87 ± 611.27 cells,≤ 975.9
"CN(C)Cc1nc2c(O)c(Cl)cc(Cl)c2c(=O)n1C [Compound F4269, 5,7-Dichloro-2-(dimethylamino)methyl-8-hydroxy-3-methylquinazolin-4(3H)-one]",0.054 to 0.059,Rat = 0.35,Human <0.2,–,–,26.76%,3557.33 ± 556.55 cells,≤ 492.1
CCN(CC)Cc1nc2c(O)c(Cl)cc(Cl)c2c(=O)n1CC1CC1 [Compound F4385],0.008 to 0.013,Rat = 0.35,Human <0.2,–,–,31.49%,3690.00 ± 919.10 cells,≤ 9074
C#CCN(C)Cc1nc2c(O)c(Cl)cc(Cl)c2c(=O)n1CC1CC1 [Compound F4387],–,–,0.75,–,–,–,–,≤ 942.7
Br.CCn1c(CNC)nc2c(O)c(Cl)cc(Cl)c2c1=O [Compound F4486],–,–,–,38.46,(1.81 ± 0.80),24.11%,2647.97 ± 814.44 cells,≤ 1115
CCNCc1nc2c(O)c(Cl)cc(Cl)c2c(=O)n1CC [Compound F4495],0.023 to 0.024,Rat = 0.35,Human <0.2,18.32,(2.26 ± 0.82),45.45% and 50.33%,–,≤ 8935
Br.CCNCc1nc2c(O)c(Cl)cc(Cl)c2c(=O)n1C [Compound F4496],–,Rat = 0.35,Human <0.2,38.61,(1.79 ± 1.13),–,–,≤ 3330.8
